The source of these data is US20230278995A1, “1,3,4-OXADIAZOLE DERIVATIVE COMPOUNDS AS HISTONE DEACETYLASE 6 INHIBITOR, AND THE PHARMACEUTICAL COMPOSITION COMPRISING THE SAME” (CHONG KUN DANG PHARMACEUTICAL CORP., priority 2020, published 2023).

In one experiment the target is T1, human recombinant HDAC1 (Homo sapiens, UniProt Q13547).
T1 construct: purchased Enzo Life Sciences, Inc. BML-SE456
The experiment is described as follows: HDAC enzyme activity inhibition assay (HDAC Fluorimetric Drug Discovery Kit), HDAC1. It is filed as biochemical. The following applies: human recombinant HDAC1, Fluor de Lys-SIRT1 substrate, 30° C. 60 minutes. The gist of the method:
(§1)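 The preceding reaction ran 60 min at 30 °C with 0.3 μg recombinant human enzyme, HDAC1 or HDAC6 under an identical protocol, and 10 μM Fluor de Lys-SIRT1 substrate, across 5-fold diluted compound.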

In another experiment the target is T2, human recombinant HDAC6 (Homo sapiens, UniProt Q9UBN7).
T2 construct: purchased Calbiochem Inc. 382180
T2 sequence (Q9UBN7 1-1215): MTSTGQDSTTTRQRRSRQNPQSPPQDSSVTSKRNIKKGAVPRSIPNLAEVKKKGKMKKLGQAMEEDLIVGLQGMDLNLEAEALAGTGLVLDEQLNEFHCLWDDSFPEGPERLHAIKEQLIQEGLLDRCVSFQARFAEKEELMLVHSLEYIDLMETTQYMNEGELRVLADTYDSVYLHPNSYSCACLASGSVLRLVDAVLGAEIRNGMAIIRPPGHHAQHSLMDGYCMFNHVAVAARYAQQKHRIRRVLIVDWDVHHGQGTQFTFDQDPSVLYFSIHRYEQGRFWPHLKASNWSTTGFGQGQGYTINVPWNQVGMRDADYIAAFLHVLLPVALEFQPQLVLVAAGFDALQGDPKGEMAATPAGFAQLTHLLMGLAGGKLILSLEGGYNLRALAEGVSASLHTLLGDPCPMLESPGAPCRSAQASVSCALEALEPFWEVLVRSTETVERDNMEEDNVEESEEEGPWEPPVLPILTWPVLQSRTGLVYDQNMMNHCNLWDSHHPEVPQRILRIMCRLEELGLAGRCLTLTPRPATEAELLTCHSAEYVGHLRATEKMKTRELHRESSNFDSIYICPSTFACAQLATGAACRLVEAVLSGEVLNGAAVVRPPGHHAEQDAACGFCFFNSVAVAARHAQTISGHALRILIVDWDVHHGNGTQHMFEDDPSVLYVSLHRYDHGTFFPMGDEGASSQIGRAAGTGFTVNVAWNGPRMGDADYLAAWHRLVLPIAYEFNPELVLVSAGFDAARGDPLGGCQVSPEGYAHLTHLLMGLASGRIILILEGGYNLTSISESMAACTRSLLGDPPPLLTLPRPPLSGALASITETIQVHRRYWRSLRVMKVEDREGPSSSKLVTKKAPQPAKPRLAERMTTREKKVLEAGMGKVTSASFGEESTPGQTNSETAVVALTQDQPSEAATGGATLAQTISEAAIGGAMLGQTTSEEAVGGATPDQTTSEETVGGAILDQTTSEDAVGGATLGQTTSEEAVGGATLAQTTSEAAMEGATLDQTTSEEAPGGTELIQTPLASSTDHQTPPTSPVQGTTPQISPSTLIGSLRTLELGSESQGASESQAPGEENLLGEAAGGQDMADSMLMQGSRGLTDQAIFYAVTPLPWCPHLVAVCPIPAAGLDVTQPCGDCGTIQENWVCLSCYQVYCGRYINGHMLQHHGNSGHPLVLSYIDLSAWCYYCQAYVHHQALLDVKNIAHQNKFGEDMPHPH
The experiment is described as follows: HDAC enzyme activity inhibition assay (HDAC Fluorimetric Drug Discovery Kit), HDAC6. The format is biochemical. The following applies: for HDAC6 selectivity (fold): HDAC1 vs HDAC6; for IC50: human recombinant HDAC6, same protocol as HDAC1. The gist of the method: as §1

T1 sequence (Q13547 whole entry): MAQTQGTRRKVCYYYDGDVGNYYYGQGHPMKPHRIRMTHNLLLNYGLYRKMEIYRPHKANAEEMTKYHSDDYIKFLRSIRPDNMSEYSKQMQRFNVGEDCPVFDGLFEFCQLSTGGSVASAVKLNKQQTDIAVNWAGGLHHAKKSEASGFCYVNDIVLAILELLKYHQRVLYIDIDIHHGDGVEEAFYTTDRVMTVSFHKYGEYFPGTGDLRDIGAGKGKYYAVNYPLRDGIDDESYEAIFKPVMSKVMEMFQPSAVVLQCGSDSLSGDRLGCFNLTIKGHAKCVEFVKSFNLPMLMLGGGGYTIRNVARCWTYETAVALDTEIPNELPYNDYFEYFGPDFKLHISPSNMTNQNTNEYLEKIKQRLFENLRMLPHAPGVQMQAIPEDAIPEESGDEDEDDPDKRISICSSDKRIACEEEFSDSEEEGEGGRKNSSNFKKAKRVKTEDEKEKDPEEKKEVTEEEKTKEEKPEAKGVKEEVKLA

On to `CC(C)N1CC(N2CC(F)(C(=O)N(Cc3ccc(-c4nnc(C(F)F)o4)cn3)c3cccc(F)c3)C2)C1` [Compound 3224], for which the IC50 on human recombinant HDAC1 was more than 50000 nM. Moreover, at human recombinant HDAC6, the “HDAC6 selectivity (fold)” value is reported as 1,326 fold and the IC50 is 37.7 nM.
In the case of `CN1CC(N2CCC(F)(C(=O)N(Cc3ccc(-c4nnc(C(F)F)o4)cn3)c3cccc(F)c3)CC2)C1` [Compound 3389, N-((5-(5-(difluoromethyl)-1,3,4-oxadiazol-2-yl)pyridin-2-yl)methyl)-4-fluoro-N-(3-fluorophenyl)-1-(1-methylazetidine-3-yl)piperidine-4-carboxamide], on human recombinant HDAC1, the IC50 was 28500 nM. Moreover, on human recombinant HDAC6, the “HDAC6 selectivity (fold)” value came out at 885 fold and the IC50 is 32.2 nM.
Taken in the same sequence, the figures for `CCCN1CC(N2CCC(F)(C(=O)N(Cc3ccc(-c4nnc(C(F)F)o4)cn3)c3cccc(F)c3)CC2)C1` [Compound 3390, N-((5-(5-(difluoromethyl)-1,3,4-oxadiazol-2-yl)pyridin-2-yl)methyl)-4-fluoro-N-(3-fluorophenyl)-1-(1-propylazetidine-3-yl)piperidin-4-carboxamide] were 24200 nM, 1,015 fold and 23.8 nM.
As to `CCCCN1CC(N2CCC(F)(C(=O)N(Cc3ccc(-c4nnc(C(F)F)o4)cn3)c3cccc(F)c3)CC2)C1` [Compound 3391, 1-(1-butylazetidine-3-yl)-N-((5-(5-(difluoromethyl)-1,3,4-oxadiazol-2-yl)pyridin-2-yl)methyl)-4-fluoro-N-(3-fluorophenyl)piperidine-4-carboxamide], the IC50 at human recombinant HDAC1 came out at 28500 nM. Besides, on human recombinant HDAC6, the “HDAC6 selectivity (fold)” value is on record as 1,361 fold and the IC50 amounted to 20.9 nM.
Taken in the same sequence, the figures for `CC(C)CN1CC(N2CCC(F)(C(=O)N(Cc3ccc(-c4nnc(C(F)F)o4)cn3)c3cccc(F)c3)CC2)C1` [Compound 3392, N-((5-(5-(difluoromethyl)-1,3,4-oxadiazol-2-yl)pyridin-2-yl)methyl)-4-fluoro-N-(3-fluorophenyl)-1-(1-isobutylazetidine-3-yl)piperidine-4-carboxamide] were 44600 nM, 2,348 fold and 19 nM.
As to `CC(C)N1CC(N2CCC(F)(C(=O)N(Cc3ccc(-c4nnc(C(F)F)o4)cn3)c3cccc(F)c3)CC2)C1` [Compound 3393, N-((5-(5-(difluoromethyl)-1,3,4-oxadiazol-2-yl)pyridin-2-yl)methyl)-4-fluoro-N-(3-fluorophenyl)-1-(1-isopropylazetidine-3-yl)piperidin-4-carboxamide], on human recombinant HDAC1, the half-maximal inhibitory concentration (IC50) is more than 50000 nM. Also, on human recombinant HDAC6, the “HDAC6 selectivity (fold)” value was 2,717 fold and the IC50 amounted to 18.4 nM.
Taken in the same sequence, the figures for `O=C(N(Cc1ccc(-c2nnc(C(F)F)o2)cn1)c1cccc(F)c1)C1(F)CN(C2CN(C3CCC3)C2)C1` [Compound 3394, 1′-cyclobutyl-N-((5-(5-(difluoromethyl)-1,3,4-oxadiazol-2-yl)pyridin-2-yl)methyl)-3-fluoro-N-(3-fluorophenyl)-[1,3′-biazetidine]-3-carboxamide] were more than 50000 nM, 1,886 fold and 26.5 nM.
Taken in the same sequence, the figures for `O=C(N(Cc1ccc(-c2nnc(C(F)F)o2)cn1)c1cccc(F)c1)C1(F)CN(C2CN(C3COC3)C2)C1` [Compound 3395, N-((5-(5-(difluoromethyl)-1,3,4-oxadiazol-2-yl)pyridin-2-yl)methyl)-3-fluoro-N-(3-fluorophenyl)-1′-(oxetan-3-yl)-[1,3′-biazetidine]-3-carboxamide] were more than 50000 nM, 1,388 fold and 36 nM.
Taken in the same sequence, the figures for `O=C(N(Cc1ccc(-c2nnc(C(F)F)o2)cn1)c1cccc(F)c1)C1(F)CN(C2CN(C3CCCC3)C2)C1` [Compound 3396, 1′-cyclopentyl-N-((5-(5-(difluoromethyl)-1,3,4-oxadiazol-2-yl)pyridin-2-yl)methyl)-3-fluoro-N-(3-fluorophenyl)-[1,3′-biazetidine]-3-carboxamide] were 31600 nM, 1,618 fold and 19.5 nM.
Consider `O=C(N(Cc1ccc(-c2nnc(C(F)F)o2)cn1)c1cccc(F)c1)C1(F)CN(C2CN(C3CCOC3)C2)C1` (stereo not drawn) [Compound 3397, N-((5-(5-(difluoromethyl)-1,3,4-oxadiazol-2-yl)pyridin-2-yl)methyl)-3-fluoro-N-(3-fluorophenyl)-1′-(tetrahydrofuran-3-yl)-[1,3′-biazetidine]-3-carboxamide], for which the half-inhibitory concentration (IC50) on human recombinant HDAC1 is 23700 nM; on human recombinant HDAC6, 23.2 nM. In addition, the “HDAC6 selectivity (fold)” value at human recombinant HDAC6 is recorded as 1,022 fold.
Taken in the same sequence, the figures for `O=C(N(Cc1ccc(-c2nnc(C(F)F)o2)cn1)c1cccc(F)c1)C1(F)CN(C2CN(C3CCCCC3)C2)C1` [Compound 3398, 1′-cyclohexyl-N-((5-(5-(difluoromethyl)-1,3,4-oxadiazol-2-yl)pyridin-2-yl)methyl)-3-fluoro-N-(3-fluorophenyl)-[1,3′-biazetidine]-3-carboxamide] were 27500 nM, 20 nM and 1,374 fold.
Consider `O=C(N(Cc1ccc(-c2nnc(C(F)F)o2)cn1)c1cccc(F)c1)C1(F)CN(C2CN(C3CCOCC3)C2)C1` [Compound 3399, N-((5-(5-(difluoromethyl)-1,3,4-oxadiazol-2-yl)pyridin-2-yl)methyl)-3-fluoro-N-(3-fluorophenyl)-1′-(tetrahydro-2H-pyran-4-yl)-[1,3′-biazetidine]-3-carboxamide], for which the concentration for half-maximal inhibition (IC50) on human recombinant HDAC1 is 31500 nM. At human recombinant HDAC6, the “HDAC6 selectivity (fold)” value is recorded as 1,569 fold and the concentration for half-maximal inhibition (IC50) came to 20.1 nM.
Taken in the same sequence, the figures for `CCN1CCC(N2CC(F)(C(=O)N(Cc3ccc(-c4nnc(C(F)F)o4)cn3)c3cccc(F)c3)C2)CC1` [Compound 3400, N-((5-(5-(difluoromethyl)-1,3,4-oxadiazol-2-yl)pyridin-2-yl)methyl)-1-(1-ethylpiperidin-4-yl)-3-fluoro-N-(3-fluorophenyl)azetidine-3-carboxamide] were 36600 nM, 1,695 fold and 21.6 nM.
Taken in the same sequence, the figures for `CCCN1CCC(N2CC(F)(C(=O)N(Cc3ccc(-c4nnc(C(F)F)o4)cn3)c3cccc(F)c3)C2)CC1` [Compound 3401, N-((5-(5-(difluoromethyl)-1,3,4-oxadiazol-2-yl)pyridin-2-yl)methyl)-3-fluoro-N-(3-fluorophenyl)-1-(1-propylpiperidin-4-yl)azetidine-3-carboxamide] were 44500 nM, 1,951 fold and 22.8 nM.
Taken in the same sequence, the figures for `CCCCN1CCC(N2CC(F)(C(=O)N(Cc3ccc(-c4nnc(C(F)F)o4)cn3)c3cccc(F)c3)C2)CC1` [Compound 3402, 1-(1-butylpiperidin-4-yl)-N-((5-(5-(difluoromethyl)-1,3,4-oxadiazol-2-yl)pyridin-2-yl)methyl)-3-fluoro-N-(3-fluorophenyl)azetidine-3-carboxamide] were more than 50000 nM, 2,403 fold and 20.8 nM.
